Each compound was assayed against T1, human FSH receptor (Homo sapiens, UniProt P23945) (assay: Agonistic activity at the human FSH receptor expressed in CHO cells (CRE-luciferase reporter)). Conditions: CHO cells stably transfected with human FSH receptor and CRE/luciferase reporter; tested 0.1 nM to 10 μM; read-out: EC50 (concentration of test compound causing half-maximal (50%) luciferase stimulation).
T1 construct: expressed in transfected cells; host or cells: Chinese Hamster Ovary (CHO) cells
T1 sequence (P23945 18-695): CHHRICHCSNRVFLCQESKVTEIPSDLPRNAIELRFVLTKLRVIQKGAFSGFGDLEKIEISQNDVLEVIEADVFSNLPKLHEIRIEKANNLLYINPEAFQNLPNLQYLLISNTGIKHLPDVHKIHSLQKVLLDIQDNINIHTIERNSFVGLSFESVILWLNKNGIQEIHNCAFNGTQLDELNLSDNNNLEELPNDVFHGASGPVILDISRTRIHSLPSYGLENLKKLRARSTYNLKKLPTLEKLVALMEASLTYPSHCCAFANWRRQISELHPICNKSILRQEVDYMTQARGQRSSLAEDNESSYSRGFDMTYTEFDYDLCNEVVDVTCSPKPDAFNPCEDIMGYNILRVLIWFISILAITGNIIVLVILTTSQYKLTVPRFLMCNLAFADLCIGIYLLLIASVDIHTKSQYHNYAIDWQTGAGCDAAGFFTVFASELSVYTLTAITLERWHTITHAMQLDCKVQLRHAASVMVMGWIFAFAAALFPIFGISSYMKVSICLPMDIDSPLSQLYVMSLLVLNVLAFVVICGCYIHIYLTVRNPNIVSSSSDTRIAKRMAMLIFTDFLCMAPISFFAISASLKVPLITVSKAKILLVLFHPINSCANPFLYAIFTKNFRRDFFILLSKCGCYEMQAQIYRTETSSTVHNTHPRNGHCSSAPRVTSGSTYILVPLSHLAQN
Type: cell-based
Experimental: Agonistic Activity of Compounds at the Human FSH Receptor Expressed in CHO Cells
Agonist activity of the compounds at the human FSH receptor was tested in Chinese Hamster Ovary (CHO) cells stably transfected with the human FSH receptor and cotransfected with a cAMP responsive element (CRE)/promotor directing the expression of a firefly luciferase reporter gene. Binding of the compound to the Gscoupled FSH receptor will result in an increase of cAMP, which in turn will induce an increased transactivation of the luciferase reporter construct. The luciferase activity was quantified using a luminescence counter. The compounds were tested in the concentration range of 0.1 nM to 10 μM. This assay was used to determine the EC50 (concentration of test compound causing half-maximal (50%) luciferase stimulation) and efficacy of the compounds compared to recombinant human FSH. For this, the software program XLfit (Excel version 2.0, built 30, ID Business Solutions Limited) was used.

| Structure (SMILES) | EC50 |
| --- | --- |
| CCCC1CC(=O)C2=C(C1)NC(C)=C(C#N)C2c1cc(Br)c(OCc2cccc(NC(=O)CNCc3ccncc3)c2)c(OCC)c1 (stereo not drawn) [Example 3, N-{3-[2-Bromo-4-(3-cyano-2-methyl-5-oxo-7-propyl-1,4,5,6,7,8-hexahydro-quinolin-4-yl)-6-ethoxy-phenoxymethyl]-phenyl}-2-[(pyridin-4-ylmethyl)-amino]-acetamide] | < 10 nM |
| CCCC1CC(=O)C2=C(C1)NC(C)=C(C#N)C2c1cc(Br)c(OCc2cccc(NC(=O)CN3CCN(CCO)CC3)c2)c(OCC)c1 (stereo not drawn) [Example 5, N-{3-[2-Bromo-4-(3-cyano-2-methyl-5-oxo-7-propyl-1,4,5,6,7,8-hexahydro-quinolin-4-yl)-6-ethoxy-phenoxymethyl]-phenyl}-2-[4-(2-hydroxy-ethyl)-piperazin-1-yl]-acetamide] | < 10 nM |
| CCCC1CC(=O)C2=C(C1)NC(C)=C(C#N)C2c1cc(Br)c(OCc2ccccc2NC(=O)c2ccco2)c(OCC)c1 (stereo not drawn) [Example 22, Furan-2-carboxylic acid {2-[2-bromo-4-(3-cyano-2-methyl-5-oxo-7-propyl-1,4,5,6,7,8-hexahydro-quinolin-4-yl)-6-ethoxy-phenoxymethyl]-phenyl}-amide] | < 10 nM |
| C=CC(=O)Nc1ccccc1COc1c(Br)cc(C2C(C#N)=C(C)NC3=C2C(=O)CC(CCC)C3)cc1OCC (stereo not drawn) [Example 23, N-{2-[2-Bromo-4-(3-cyano-2-methyl-5-oxo-7-propyl-1,4,5,6,7,8-hexahydro-quinolin-4-yl)-6-ethoxy-phenoxymethyl]-phenyl}-acrylamide] | < 10 nM |
| CCCC1CC(=O)C2=C(C1)NC(C)=C(C#N)C2c1cc(Br)c(OCc2ccccc2NC(=O)OC)c(OCC)c1 (stereo not drawn) [Example 25] | < 10 nM |
| CCCC1CC(=O)C2=C(C1)NC(C)=C(C#N)C2c1cc(Br)c(OCc2ccccc2NC(=O)NC)c(OCC)c1 (stereo not drawn) [Example 34, 1-{2-[2-Bromo-4-(3-cyano-2-methyl-5-oxo-7-propyl-1,4,5,6,7,8-hexahydro-quinolin-4-yl)-6-ethoxy-phenoxymethyl]-phenyl}-3-methyl-urea] | < 10 nM |
| CCCC1CC(=O)C2=C(C1)NC(C)=C(C#N)C2c1cc(Br)c(OCc2cccnc2NC(=O)OC)c(OCC)c1 (stereo not drawn) [Example 38, {3-[2-Bromo-4-(3-cyano-2-methyl-5-oxo-7-propyl-1,4,5,6,7,8-hexahydro-quinolin-4-yl)-6-ethoxy-phenoxymethyl]-pyridin-2-yl}-carbamic acid methyl ester] | < 10 nM |
| CCCC1CC(=O)C2=C(C1)NC(C)=C(C#N)C2c1cc(Br)c(OCc2cccn2S(C)(=O)=O)c(OCC)c1 (stereo not drawn) [Example 51, 4-[3-Bromo-5-ethoxy-4-(1-methanesulfonyl-1H-pyrrol-2-ylmethoxy)-phenyl]-2-methyl-5-oxo-7-propyl-1,4,5,6,7,8-hexahydro-quinoline-3-carbonitrile] | < 10 nM |
| CCCC1CC(=O)C2=C(C1)NC(C)=C(C#N)C2c1cc(Br)c(OCc2ccc(C(=N)NC)cc2)c(OCC)c1 (stereo not drawn) [Example 54, 4-[2-Bromo-4-(3-cyano-2-methyl-5-oxo-7-propyl-1,4,5,6,7,8-hexahydro-quinolin-4-yl)-6-ethoxy-phenoxymethyl]-N-methyl-benzamidine] | < 10 nM |
| CCCC1CC(=O)C2=C(C1)NC(C)=C(C#N)C2c1cc(Br)c(NCc2cccnc2)c(OCC)c1 (stereo not drawn) [Example 56, 4-{3-Bromo-5-ethoxy-4-[(pyridin-3-ylmethyl)-amino]-phenyl}-2-methyl-5-oxo-7-propyl-1,4,5,6,7,8-hexahydro-quinoline-3-carbonitrile] | < 10 nM |
| CCCC1CC(=O)C2=C(C1)NC(C)=C(C#N)C2c1cc(Br)c(NCc2ccccc2NS(C)(=O)=O)c(OCC)c1 (stereo not drawn) [Example 58, N-(2-{[2-Bromo-4-(3-cyano-2-methyl-5-oxo-7-propyl-1,4,5,6,7,8-hexahydro-quinolin-4-yl)-6-ethoxy-phenylamino]-methyl}-phenyl)-methanesulfonamide] | < 10 nM |
| CCCC1CC(=O)C2=C(C1)NC(C)=C(C#N)C2c1cc(Br)c(OCc2ccccc2NCC2CC2)c(OCC)c1 (stereo not drawn) [Example 62, 4-{3-Bromo-4-[2-(cyclopropylmethyl-amino)-benzyloxy]-5-ethoxy-phenyl}-2-methyl-5-oxo-7-propyl-1,4,5,6,7,8-hexahydro-quinoline-3-carbonitrile] | < 10 nM |

Continued, values first:

| EC50 | Structure (SMILES) |
| --- | --- |
| < 10 nM | CCCC1CC(=O)C2=C(C1)NC(C)=C(C#N)C2c1cc(Br)c(OCc2cccc(NC(=O)c3cc(OC)c(OC)c(OC)c3)c2)c(OCC)c1 (stereo not drawn) [Example 1, N-{3-[2-Bromo-4-(3-cyano-2-methyl-5-oxo-7-propyl-1,4,5,6,7,8-hexahydro-quinolin-4-yl)-6-ethoxy-phenoxymethyl]-phenyl}-3,4,5-trimethoxy-benzamide] |
| < 10 nM | CCCC1CC(=O)C2=C(C1)NC(C)=C(C#N)C2c1cc(Br)c(OCc2cccc(C(=O)N3CC=CCC3)c2)c(OCC)c1 (stereo not drawn) [Example 7, 4-{3-Bromo-4-[3-(3,6-dihydro-2H-pyridine-1-carbonyl)-benzyloxy]-5-ethoxy-phenyl}-2-methyl-5-oxo-7-propyl-1,4,5,6,7,8-hexahydro-quinoline-3-carbonitrile] |
| < 10 nM | CCCC1CC(=O)C2=C(C1)NC(C)=C(C#N)C2c1cc(Br)c(OCc2cccc(NC(=O)CCN(CCOC)CCOC)c2)c(OCC)c1 (stereo not drawn) [Example 11, 3-[Bis-(2-methoxy-ethyl)-amino]-N-{3-[2-bromo-4-(3-cyano-2-methyl-5-oxo-7-propyl-1,4,5,6,7,8-hexahydro-quinolin-4-yl)-6-ethoxy-phenoxymethyl]-phenyl}-propionamide] |
| < 10 nM | CCCC1CC(=O)C2=C(C1)NC(C)=C(C#N)C2c1cc(Br)c(OCc2cccc(OCC(=O)N(C)C)c2)c(OCC)c1 (stereo not drawn) [Example 15, 2-{3-[2-Bromo-4-(3-cyano-2-methyl-5-oxo-7-propyl-1,4,5,6,7,8-hexahydro-quinolin-4-yl)-6-ethoxy-phenoxymethyl]-phenoxy}-N,N-dimethyl-acetamide] |
| < 10 nM | CCCC1CC(=O)C2=C(C1)NC(C)=C(C#N)C2c1cc(Br)c(OCc2cccc(OCC(=O)N3CCOCC3)c2)c(OCC)c1 (stereo not drawn) [Example 17, 4-{3-Bromo-5-ethoxy-4-[3-(2-morpholin-4-yl-2-oxo-ethoxy)-benzyloxy]-phenyl}-2-methyl-5-oxo-7-propyl-1,4,5,6,7,8-hexahydro-quinoline-3-carbonitrile] |
| < 10 nM | CCCC1CC(=O)C2=C(C1)NC(C)=C(C#N)C2c1cc(Br)c(OCc2ccccc2NC(=O)C2CC2)c(OCC)c1 (stereo not drawn) [Example 24, Cyclopropanecarboxylic acid {2-[2-bromo-4-(3-cyano-2-methyl-5-oxo-7-propyl-1,4,5,6,7,8-hexahydro-quinolin-4-yl)-6-ethoxy-phenoxymethyl]-phenyl}-amide] |
| < 10 nM | CCCC1CC(=O)C2=C(C1)NC(C)=C(C#N)C2c1cc(Br)c(OCc2cccc(NS(C)(=O)=O)c2)c(OCC)c1 (stereo not drawn) [Example 42, N-{3-[2-Bromo-4-(3-cyano-2-methyl-5-oxo-7-propyl-1,4,5,6,7,8-hexahydro-quinolin-4-yl)-6-ethoxy-phenoxymethyl]-phenyl}-methanesulfonamide] |
| < 10 nM | C=CCOC(=O)Nc1ccc(COc2c(Br)cc(C3C(C#N)=C(C)NC4=C3C(=O)CC(CCC)C4)cc2OCC)cc1 (stereo not drawn) [Example 50, {4-[2-Bromo-4-(3-cyano-2-methyl-5-oxo-7-propyl-1,4,5,6,7,8-hexahydro-quinolin-4-yl)-6-ethoxy-phenoxymethyl]-phenyl}-carbamic acid allyl ester] |
| < 10 nM | CCC[C@@H]1CC(=O)C2=C(C1)NC(C)=C(C#N)[C@H]2c1cc(Br)c(OCc2cc(F)c(F)cc2NS(C)(=O)=O)c(OCC)c1 [Example 72, N-{2-[2-Bromo-4-((4R,7S)-3-cyano-2-methyl-5-oxo-7-propyl-1,4,5,6,7,8-hexahydro-quinolin-4-yl)-6-ethoxy-phenoxymethyl]-4,5-difluoro-phenyl}-methanesulfonamide] |
